Results on 50 compounds are retold here after patent publication US20220315534A1, “BETA ADRENERGIC AGONIST AND METHODS OF USING THE SAME” (Curasen Therapeutics, Inc., priority 2019, published 2022).

Structures are written as SMILES. pEC50: −log10 of the molar value. Where two headings read alike, the source gives them in different places. Where only a bound is given, the exact number is not on record here.

Assay [1] has as its target T1, β1-adrenergic receptor (B1-AR) (Homo sapiens, UniProt P08588).
T1 construct: expressed in transfected cells
The experiment in a line: cAMP Gs dynamic HTRF assay, cells expressing β1-adrenergic receptor. In kind it is cell-based. The conditions noted are these: for EC50: CHO-K1 (HitHunter) cells, read-out: Average pEC50 [Receptor subtype: B1-AR, Cell type: CHO-K1 (HitHunter)] (converted). The procedure:
(§1) cAMP homogeneous time-resolved fluorescence (HTRF): experimental methods. Compound efficacy is determined using the cAMP Gs dynamic HTRF assay (Cisbio, catalog #62AM4PEC) largely following the manufacturer's instructions, also detailed below.
(§2) Standard serial dilution curves are 10-point, 5-fold dilutions starting from a highest concentration of 10 μM. […] Assay plates are centrifuged at 500×g for 10 seconds. Compounds and IBMX are prepared at 2× final dose to compensate for addition of cells.
(§3) Cell preparation: 1× stimulation buffer, washing PBS (Dulbecco's phosphate-buffered saline, —Mg —Ca; Caisson Labs, catalog #PBL01), assay PBS (Dulbecco's phosphate-buffered saline, +Mg, +Ca; Caisson Labs, catalog #PBL02) and Versene (0.02% EDTA disodium salt solution in PBS without calcium or magnesium; Caisson Labs, catalog #EDL01) are pre-warmed to 37° C. Cells expressing beta-adrenergic receptor were washed in washing PBS to remove growth medium and then released from the surface by incubating with Versene for 5-10 minutes at 37° C. Cells are harvested using assay PBS, counted manually by hemocytometer or by an automated cell counter, pelleted by centrifugation (200×g, 5 minutes) and resuspended in 37° C. 1× stimulation buffer to a final density of […]. 5 μL of the suspended cell solution (7500 cell total) are added to all wells of the 384 well assay plate, the assay plate was covered with an Axygen® plate seal (Corning PCR-SP) and incubated in a humidified 37° C. environment supplemented with 5% CO2 for 30 minutes.
(§4) HTRF reagent addition, reading and data analysis: After 30 minutes of cell stimulation with test compound, the assay plates are centrifuged at 500×g for 10 seconds, and incubation was stopped with the addition of 5 μL cAMP-D2 acceptor, diluted 1:21 in detection and lysis buffer 2 (Cisbio 62CL2FDF) was added to all cells. Subsequently, 5 μL Anti-cAMP-Eu Donor, diluted 1:21 in detection and lysis buffer 2, was added to cells. Plates were sealed and reactions gently ‘vortexed’ at 900 rpm on a Heidolph Titramax 1000 for at least 30 minutes at room temperature. Plates are centrifuged again at 500×g for 10 seconds, and HTRF was measured using a Tecan Spark plate reader at 50 flashes per well. […] Potency estimates (EC50 and pEC50) are derived from the four-parameter nonlinear regression of the concentration-effect curve and an estimate of relative efficacy is determined by comparing the magnitude of the test compound HTRF signal window (min-max dose) with the signal window of the full agonist control, isoproterenol.
In general terms: TR-FRET usually uses a lanthanide donor and a delayed reading to cut background.

Assay [2] deals with T2, β2-adrenergic receptor (B2-AR) (Homo sapiens, UniProt P07550).
T2 construct: expressed in transfected cells
T2 sequence (P07550 whole entry): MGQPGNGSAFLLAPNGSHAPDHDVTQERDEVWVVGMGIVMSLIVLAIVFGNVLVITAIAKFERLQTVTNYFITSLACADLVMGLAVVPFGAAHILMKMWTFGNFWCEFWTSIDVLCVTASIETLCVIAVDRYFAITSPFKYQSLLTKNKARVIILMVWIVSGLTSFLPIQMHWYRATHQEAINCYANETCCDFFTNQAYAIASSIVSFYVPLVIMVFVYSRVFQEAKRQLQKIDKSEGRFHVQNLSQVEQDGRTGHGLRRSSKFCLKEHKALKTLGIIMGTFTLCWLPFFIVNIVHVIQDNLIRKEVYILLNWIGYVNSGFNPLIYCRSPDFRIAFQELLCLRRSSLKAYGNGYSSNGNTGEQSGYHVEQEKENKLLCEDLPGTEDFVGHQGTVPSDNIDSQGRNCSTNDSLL
The experiment in a line: cAMP Gs dynamic HTRF assay, cells expressing β2-adrenergic receptor. The conditions noted are these: for EC50: CHO-K1 (HitHunter) cells, read-out: Average pEC50 [Receptor subtype: B2-AR, Cell type: CHO-K1 (HitHunter)] (converted). In kind it is cell-based. The method, then: as §1, §2, §3, §4

T1 sequence (P08588 whole entry): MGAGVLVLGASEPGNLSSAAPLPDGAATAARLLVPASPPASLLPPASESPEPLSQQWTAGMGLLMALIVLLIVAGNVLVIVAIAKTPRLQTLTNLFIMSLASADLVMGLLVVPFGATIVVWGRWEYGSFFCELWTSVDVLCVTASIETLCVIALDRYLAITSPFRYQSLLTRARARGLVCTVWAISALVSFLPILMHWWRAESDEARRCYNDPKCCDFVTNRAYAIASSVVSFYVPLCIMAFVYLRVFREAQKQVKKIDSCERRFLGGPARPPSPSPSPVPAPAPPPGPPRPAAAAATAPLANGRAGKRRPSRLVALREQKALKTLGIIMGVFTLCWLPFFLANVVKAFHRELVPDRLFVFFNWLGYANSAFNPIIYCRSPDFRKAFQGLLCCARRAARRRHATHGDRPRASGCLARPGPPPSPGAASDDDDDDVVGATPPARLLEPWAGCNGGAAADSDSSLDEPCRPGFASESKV

With `CC(C)NC[C@H](O)c1cccc2[nH]c3ccccc3c12` [Compound 04-56], the EC50 in assay [1] and in assay [2] was less than 10 nM throughout.

As for `CC(C)(C)NC[C@H](O)c1cccc2[nH]c3ncccc3c12` [Compound 04-131], the EC50 in assay [1] and in assay [2] was less than 10 nM in each case.

On to `CC(C)(C)NC[C@H](O)c1cccc2c1C1(CC1)CN2` [Compound 04-120], for which the EC50 in assay [1] is greater than 1000 nM; in assay [2] it was 100 to 1000 nM.

Consider `CC(C)(C)NC[C@@H](O)c1ccc(F)c2[nH]c(=O)ccc12` [Compound 04-16], for which the EC50 in assay [1] is 100 to 1000 nM; in assay [2] it was 10 to 100 nM.

Consider `CC1(NC[C@H](O)c2cc(F)cc3[nH]ncc23)CC1` [Compound 04-147], for which the EC50 in assay [1] and in assay [2] was less than 10 nM throughout.

Take `CC(C)(C)NC[C@H](O)c1ccc(F)c2cccnc12` [Compound 04-80]: the EC50 in assay [1] and in assay [2] was less than 10 nM in each case.

On to `CC(C)(C)NC[C@H](O)c1cccc2[nH]c3ccccc3c12` [Compound 04-57], for which the EC50 in assay [1] and in assay [2] was less than 10 nM each time.

For `CC(C)CNC[C@H](O)c1cc(F)cc2[nH]ncc12` [Compound 04-146], the EC50 in assay [1] and in assay [2] was less than 10 nM in each case.

As for `CC(C)(C)NC[C@H](O)c1cccc2nccnc12` [Compound 04-75], the EC50 in assay [1] and in assay [2] was less than 10 nM each time.

Turning to `Cc1cc([C@@H](O)CNC(C)(C)C)cc2nc[nH]c12` [Compound 04-155], the EC50 was greater than 1000 nM in assay [1] and 100 to 1000 nM in assay [2].

Consider `Cc1c[nH]c2nccc([C@@H](O)CNC(C)(C)C)c12` [Compound 04-114], for which the EC50 in assay [1] and in assay [2] was greater than 1000 nM each time.

Turning to `CC(C)(C)NC[C@@H](O)c1nccc2[nH]ncc12` [Compound 04-145, (R)-2-(tert-butylamino)-1-(1H-pyrazolo[4,3-c]pyridin-4-yl)ethan-1-ol], the EC50 in assay [1] and in assay [2] was greater than 1000 nM in each case.

Take `Cc1cc(N)nc([C@H](O)CNC(C)(C)C)c1` [Compound 02-12]: the EC50 in assay [1] and in assay [2] was greater than 1000 nM in each case.

Regarding `CC(C)(C)NCC(O)c1ccnc2ccccc12` (stereo not drawn) [Compound 04-96], the EC50 in assay [1] and in assay [2] was 10 to 100 nM each time.

`CC(C)(C)NCC(O)c1cccc2ccccc12` (stereo not drawn) [Compound 04-98]: the EC50 was less than 10 nM in assay [1] and 10 to 100 nM in assay [2].

For the compound `CC(C)(C)NC[C@@H](O)c1cccc2ccc(C(F)(F)F)nc12` [Compound 04-86], the EC50 in assay [1] and in assay [2] was 100 to 1000 nM in each case.

Turning to `CC(C)(C)NC[C@@H](O)c1cccc2ccc(C#N)nc12` [Compound 04-71], the EC50 in assay [1] and in assay [2] was 100 to 1000 nM throughout.

On to `CC(C)(C)NC[C@H](O)c1ccc(F)c2[nH]c3ccccc3c12` [Compound 04-122], for which the EC50 in assay [1] and in assay [2] was less than 10 nM each time.

For `CC(C)(C)NC[C@@H](O)c1ccc(C(F)(F)F)c2cccnc12` [Compound 04-81], the EC50 in assay [1] and in assay [2] was 100 to 1000 nM each time.

On to `CC(C)(C)NC[C@H](O)c1cccc2c1C(F)(F)C(=O)N2` [Compound 04-158], for which the EC50 in assay [1] was 10 to 100 nM; in assay [2], less than 10 nM.

As for `CC(C)(C)NC[C@H](O)c1cc(C#N)cc2[nH]ncc12` [Compound 04-104], the EC50 in assay [1] is 100 to 1000 nM; in assay [2] it was less than 10 nM.

In the case of `CC(C)(C)NC[C@H](O)c1cccc2[nH]c3cccnc3c12` [Compound 04-119], the EC50 in assay [1] and in assay [2] was less than 10 nM each time.

As for `CC(C)(C)NC[C@H](O)c1ccc2c(c1)C1(CC1)CN2` [Compound 04-123], the EC50 is greater than 1000 nM in assay [1] and 100 to 1000 nM in assay [2].

For `CC(C)(C)NC[C@H](O)c1cccc2oc(=O)ccc12` [Compound 04-3], the values for the EC50 in assay [1] and in assay [2] were greater than 1000 nM and 100 to 1000 nM, respectively.

As to `CC(C)(C)NC[C@H](O)c1cccc2c1OC(C)(C)C(=O)N2` [Compound 04-133], the EC50 in assay [1] and in assay [2] was less than 10 nM throughout.

As for `CC(C)(C)NC[C@@H](O)c1ccnc2[nH]ncc12` [Compound 04-126], the EC50 in assay [1] and in assay [2] was greater than 1000 nM throughout.

On to `CC(C)(C)NC[C@H](O)c1c2cn[nH]c2cc[n+]1[O-]` [Compound 04-106], for which the EC50 in assay [1] and in assay [2] was 100 to 1000 nM each time.

`CC(C)(C)NC[C@H](O)c1ccc2c(n1)OCCO2` [Compound 04-7]: the EC50 in assay [1] and in assay [2] was 10 to 100 nM in each case.

For `CC(C)(CO)NC[C@H](O)c1cccc2[nH]c(=O)ccc12` [Compound 04-141], the EC50 in assay [1] is 10 to 100 nM; in assay [2] it was less than 10 nM.

Take `Cn1ncc2c([C@H](O)CNC(C)(C)C)cccc21` [Compound 04-28]: the EC50 in assay [1] was 100 to 1000 nM; in assay [2], greater than 1000 nM.

Turning to `CC(C)(C)NC[C@H](O)c1ccc2cccc(Cl)c2n1` [Compound 04-39], the EC50 in assay [1] and in assay [2] was less than 10 nM throughout.

Turning to `CC(C)CNC[C@H](O)c1ccc2nc[nH]c2c1` [Compound 04-140], the EC50 was greater than 1000 nM in assay [1] and 100 to 1000 nM in assay [2].

Consider `Cc1nc(N)c(Cl)cc1[C@@H](O)CNC(C)(C)C` [Compound 02-14], for which the EC50 in assay [1] was 10 to 100 nM; in assay [2], less than 10 nM.

On to `CC(C)(C)NC[C@H](O)c1cccc2[nH]ncc12` [Compound 04-25], for which the EC50 in assay [1] and in assay [2] was less than 10 nM in each case.

On to `Cc1cc(C(O)CNC(C)(C)C)nnc1N` (stereo not drawn) [Compound 02-3], for which the EC50 in assay [1] is greater than 1000 nM; in assay [2], 100 to 1000 nM.

For the compound `Cc1ccnc2c([C@H](O)CNC(C)(C)C)cccc12` [Compound 04-83], the EC50 in assay [1] and in assay [2] was 100 to 1000 nM each time.

Take `CC(C)(C)NC[C@H](O)c1cccc2c1CCCC(=O)N2` [Compound 04-129]: the EC50 was greater than 1000 nM in assay [1] and 10 to 100 nM in assay [2].

In the case of `Cn1c(=O)ccc2c([C@@H](O)CNC(C)(C)C)cccc21` [Compound 04-2], the EC50 is 10 to 100 nM in assay [1] and less than 10 nM in assay [2].

Turning to `CC(C)(C)NC[C@H](O)c1ccc(C(F)(F)F)c2cccnc12` [Compound 04-82], the EC50 in assay [1] and in assay [2] was less than 10 nM each time.

Regarding `CC(C)(C)NC[C@@H](O)c1cccc(O)n1` [Compound 02-8], the EC50 in assay [1] and in assay [2] was greater than 1000 nM in each case.

As for `CC(C)(C)NC[C@H](O)c1cnc(N)c(Cl)c1` [Compound 02-1], the results for the EC50 in assay [1] and in assay [2] were 100 to 1000 nM and 10 to 100 nM, respectively. Besides, the pEC50 (in general, the negative decadic logarithm of the EC50, by convention in mol/L) in assay [1] (Table 2, cAMP HTRF, read-out: β1 EC50) is 6.00 to 7.00; in assay [2] (Table 2, cAMP HTRF, read-out: β2 EC50), 7.00 to 8.00.

Take `Cc1ccc2cccc([C@H](O)CNC(C)(C)C)c2n1` [Compound 04-87]: the EC50 in assay [1] and in assay [2] was 100 to 1000 nM in each case.

`CC(C)(C)NC[C@H](O)c1ccnc2[nH]c(=O)ccc12` [Compound 04-13]: the EC50 in assay [1] is 10 to 100 nM; in assay [2], less than 10 nM.

As for `CC(C)(C)NC[C@H](O)c1ccc2c(n1)CCC2` [Compound 04-9], the EC50 in assay [1] is 100 to 1000 nM; in assay [2], 10 to 100 nM.

On to `CC(C)(C)NC[C@H](O)c1cccc2cccnc12` [Compound 04-94], for which the EC50 in assay [1] and in assay [2] was less than 10 nM each time.

For `CC(C)(C)NC[C@H](O)c1nccc2[nH]c(=O)ccc12` [Compound 04-5, (S)-5-(2-(tert-butylamino)-1-hydroxyethyl)-1,6-naphthyridin-2(1H)-one], the EC50 in assay [1] and in assay [2] was greater than 1000 nM throughout.

For the compound `Cn1ncc2cc([C@H](O)CNC(C)(C)C)ccc21` [Compound 04-50], the EC50 in assay [1] is 100 to 1000 nM; in assay [2], 10 to 100 nM.

Take `CC(C)(C)NC[C@H](O)c1cccc2[nH]cc(F)c12` [Compound 04-112]: the EC50 in assay [1] and in assay [2] was less than 10 nM in each case.

For the compound `CC(C)(C)NC[C@H](O)c1c(Cl)ccc2[nH]ncc12` [Compound 04-139], the EC50 in assay [1] and in assay [2] was greater than 1000 nM each time.

Regarding `CC(C)(C)NC[C@H](O)c1ccc2cccc(F)c2n1` [Compound 04-41], the EC50 in assay [1] and in assay [2] was less than 10 nM in each case.
